From patent US10065972B2, “Bicyclic or tricyclic heterocyclic compound” (MITSUBISHI TANABE PHARMA CORPORATION, priority 2014, dated 2018)

What follows are compounds tested against human recombinant KAT-II (Homo sapiens (Human), UniProt Q8N5Z0) (assay: KAT-II inhibitory test). Conditions: 3.0 μmol/L kynurenine, 37° C., 1 hr, pH 8.0; kynurenic acid quantified by HPLC.
human recombinant KAT-II, sequence (Q8N5Z0 30-425): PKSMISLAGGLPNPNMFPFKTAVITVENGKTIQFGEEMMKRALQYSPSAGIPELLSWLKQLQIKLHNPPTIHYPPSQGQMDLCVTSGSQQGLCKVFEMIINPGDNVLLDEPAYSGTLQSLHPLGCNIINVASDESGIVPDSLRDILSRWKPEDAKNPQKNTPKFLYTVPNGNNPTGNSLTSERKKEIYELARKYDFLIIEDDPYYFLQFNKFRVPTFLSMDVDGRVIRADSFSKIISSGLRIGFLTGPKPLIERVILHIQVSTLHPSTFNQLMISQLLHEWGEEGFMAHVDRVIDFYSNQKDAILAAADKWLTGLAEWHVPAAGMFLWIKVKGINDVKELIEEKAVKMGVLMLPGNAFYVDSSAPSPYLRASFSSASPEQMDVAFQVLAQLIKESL
Assay type: biochemical
How it was run: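 Kynurenic acid formation was measured by HPLC fluorescence (354 nm excitation, 460 nm emission) against an external standard curve. The substrate was 3.0 μmol/L kynurenine with 10 μmol/L pyridoxal phosphate, at pH 8.0 Tris-acetate, 37 °C for 1 hr, using 2.0 ng/μL amylose-purified N-terminal His/MBP-tagged recombinant enzyme. Duplicate measurements were made per concentration.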
Compound `CCn1nc(C2CC2)c2sc(N3CCC[C@@H]3C(=O)NCc3ccccc3)nc2c1=O` [Example 614, (R)-N-benzyl-1-(7-cyclopropyl-5-ethyl-4-oxo-4,5-dihydro[1,3]thiazolo[4,5-d]pyridazin-2-yl)pyrrolidine-2-carboxamide] has an IC50 of 16 nM.
Compound `Cc1nn(C2CCCCC2)c(=O)c2nc(N3CCC[C@@H]3C(=O)NCc3ccccc3)sc12` [Example 616, (R)-N-benzyl-1-(5-cyclohexyl-7-methyl-4-oxo-4,5-dihydro[1,3]thiazolo[4,5-d]pyridazin-2-yl)pyrrolidine-2-carboxamide] has an IC50 of 73 nM.
`O=C(NCc1ccccc1)[C@H]1CCCN1c1nc2c(=O)[nH]cc(C(F)(F)F)c2s1` [Example 617, (R)-N-benzyl-1-(4-oxo-7-trifluoromethyl-4,5-dihydro[1,3]thiazolo[4,5-c]pyridin-2-yl)pyrrolidine-2-carboxamide] was tested, and the IC50 was 240 nM.
Work on `O=C(NCc1ccccc1)[C@H]1CCCN1c1nc2c(=O)[nH]c(C3CC3)c(Cl)c2s1` [Example 623, (R)-N-benzyl-1-(7-chloro-6-cyclopropyl-4-oxo-4,5-dihydro[1,3]thiazolo[4,5-c]pyridin-2-yl)pyrrolidine-2-carboxamide] yielded an IC50 of 22 nM.
With `O=C(NCc1ccccc1)[C@H]1CCCN1c1nc2c(=O)[nH]c(-c3ccccc3F)c(Cl)c2s1` [Example 624, (R)-N-benzyl-1-[7-chloro-6-(2-fluorophenyl)-4-oxo-4,5-dihydro[1,3]thiazolo[4,5-c]pyridin-2-yl]pyrrolidine-2-carboxamide] the IC50 was 15 nM.
`CC(C)(F)c1[nH]c(=O)c2nc(N3CCC[C@@H]3C(=O)NCc3ccccc3)sc2c1Cl` [Example 626, (R)-N-benzyl-1-[7-chloro-6-(2-fluoropropan-2-yl)-4-oxo-4,5-dihydro[1,3]thiazolo[4,5-c]pyridin-2-yl]pyrrolidine-2-carboxamide] was tested, and the IC50 was 15 nM.
For `CCOC1(c2cc3sc(N4CCC[C@@H]4C(=O)NCc4ccccc4)nc3c(=O)[nH]2)CC1` [Example 629, (R)-N-benzyl-1-[6-(1-ethoxycyclopropyl)-4-oxo-4,5-dihydro[1,3]thiazolo[4,5-c]pyridin-2-yl]pyrrolidine-2-carboxamide], the IC50 was 47 nM.
In the case of `Cn1c(C(F)(F)F)cc2sc(N3CCC[C@@H]3C(=O)NCc3ccccc3)nc2c1=O` [Example 631, (R)-N-benzyl-1-(5-methyl-4-oxo-6-trifluoromethyl-4,5-dihydro[1,3]thiazolo[4,5-c]pyridin-2-yl)pyrrolidine-2-carboxamide], the IC50 is reported as 55 nM.
For `CCCc1cc(=O)n2nc(N3CCCC[C@@H]3C(=O)NCc3ccccc3)sc2n1` [Example 635, (R)-N-benzyl-1-(5-oxo-7-propyl-5H-[1,3,4]thiadiazolo[3,2-a]pyrimidin-2-yl) piperidine-2-carboxamide], the IC50 was 970 nM.
In the case of `Cc1cc(=O)n2nc(N3CCC[C@@H]3C(=O)NC(C)(C)c3ccccc3)sc2n1` [Example 636, (R)-1-(7-methyl-5-oxo-5H-[1,3,4]thiadiazolo[3,2-a]pyrimidin-2-yl)-N-(1-methyl-1-phenylethyl)pyrrolidine-2-carboxamide], the IC50 is reported as 1500 nM.
`O=C(NCc1ccccc1)[C@H]1CCCN1c1nn2c(=O)cc(-c3ccccc3)nc2s1` [Example 638, (R)-N-benzyl-1-(5-oxo-7-phenyl-5H-[1,3,4]thiadiazolo[3,2-a]pyrimidin-2-yl)pyrrolidine-2-carboxamide] gave an IC50 of 29 nM.
For `O=C(NCc1ccccc1)[C@H]1CCCN1c1nn2c(=O)c3c(nc2s1)CCCC3` [Example 639, (R)-N-benzyl-1-(5-oxo-6,7,8,9-tetrahydro-5H-[1,3,4]thiadiazolo[2,3-b]quinazolin-2-yl)pyrrolidine-2-carboxamide], the IC50 was 49 nM.
For `O=C(NCc1ccccc1)[C@H]1CCCN1c1nn2c(=O)cc(C(F)(F)F)nc2s1` [Example 642, (R)-N-benzyl-1-(5-oxo-7-trifluoromethyl-5H-[1,3,4]thiadiazolo[3,2-a]pyrimidin-2-yl)pyrrolidine-2-carboxamide], the IC50 was 78 nM.
Work on `CCc1cc(=O)n2nc(N3CCOC[C@@H]3C(=O)NCc3ccccc3)sc2n1` [Example 645, (R)-N-benzyl-4-(7-ethyl-5-oxo-5H-[1,3,4]thiadiazolo[3,2-a]pyrimidin-2-yl)morpholine-3-carboxamide] yielded an IC50 of 1600 nM.
Compound `Cc1nc2sc(N3CCC[C@@H]3C(=O)NCc3ccccc3)nn2c(=O)c1C(C)C` [Example 647, (R)-N-benzyl-1-[7-methyl-5-oxo-6-(propan-2-yl)-5H-[1,3,4]thiadiazolo[3,2-a]pyrimidin-2-yl]pyrrolidine-2-carboxamide] has an IC50 of 58 nM.
In the case of `Cc1nc2sc(N3CCC[C@@H]3C(=O)NCc3ccccc3)nn2c(=O)c1-c1ccccc1` [Example 648, (R)-N-benzyl-1-(7-methyl-5-oxo-6-phenyl-5H-[1,3,4]thiadiazolo[3,2-a]pyrimidin-2-yl)pyrrolidine-2-carboxamide], the IC50 is reported as 46 nM.
Work on `CCc1nc2sc(N3CC(F)(F)C[C@@H]3C(=O)NCc3ccccc3)nn2c(=O)c1F` [Example 650, (R)-N-benzyl-1-(7-ethyl-6-fluoro-5-oxo-5H-[1,3,4]thiadiazolo[3,2-a]pyrimidin-2-yl)-4,4-difluoropyrrolidine-2-carboxamide] yielded an IC50 of 2200 nM.
Compound `CC(C)c1cc(=O)n2nc(N3CCC[C@@H]3C(=O)NCc3ccccn3)sc2n1` [Example 653, (R)-1-[5-oxo-7-(propan-2-yl)-5H-[1,3,4]thiadiazolo[3,2-a]pyrimidin-2-yl]-N-[(pyridin-2-yl)methyl]pyrrolidine-2-carboxamide] has an IC50 of 190 nM.
For `O=C(NC1(c2ccccc2)CC1)[C@H]1CCCN1c1nn2c(=O)c3ccccc3nc2s1` [Example 655, (R)-1-(5-oxo-5H-[1,3,4]thiadiazolo[2,3-b]quinazolin-2-yl)-N-(1-phenylcyclopropyl)pyrrolidine-2-carboxamide], the IC50 was 29 nM.
For `Cc1cc2c(=O)n3nc(N4CCC[C@@H]4C(=O)NCc4ccccc4)sc3nc2s1` [Example 656, (R)-N-benzyl-1-(6-methyl-8-oxo-8H-[1,3,4]thiadiazolo[3,2-a]thieno[2,3-d]pyrimidin-2-yl)pyrrolidine-2-carboxamide], the IC50 was 44 nM.
For `CCc1nc2sc(N3CCC[C@@H]3C(=O)NCc3cc(C)ccn3)nn2c(=O)c1F` [Example 664, (R)-1-(7-ethyl-6-fluoro-5-oxo-5H-[1,3,4]thiadiazolo[3,2-a]pyrimidin-2-yl)-N-[(4-methylpyridin-2-yl)methyl]pyrrolidine-2-carboxamide], the IC50 was 560 nM.
`CCc1nc2sc(N3CCC[C@@H]3C(=O)NCc3ccccc3Cl)nn2c(=O)c1F` [Example 678, (R)-N-(2-chlorobenzyl)-1-(7-ethyl-6-fluoro-5-oxo-5H-[1,3,4]thiadiazolo[3,2-a]pyrimidin-2-yl)pyrrolidine-2-carboxamide] was tested, and the IC50 was 19 nM.
`CCc1nc2sc(N3CCC[C@@H]3C(=O)NCc3ncccn3)nn2c(=O)c1F` [Example 684, (R)-1-(7-ethyl-6-fluoro-5-oxo-5H-[1,3,4]thiadiazolo[3,2-a]pyrimidin-2-yl)-N-[(pyrimidin-2-yl)methyl]pyrrolidine-2-carboxamide] was tested, and the IC50 was 11000 nM.
With `CCc1nc2sc(N3CCC[C@@H]3C(=O)NCc3cnc(C)cn3)nn2c(=O)c1F` [Example 685, (R)-1-(7-ethyl-6-fluoro-5-oxo-5H-[1,3,4]thiadiazolo[3,2-a]pyrimidin-2-yl)-N-[(5-methylpyrazin-2-yl)methyl]pyrrolidine-2-carboxamide] the IC50 was 2200 nM.
